# Source: US5908868A, “Retinol derivatives useful for enhancing immune response” (priority 1995, dated 1999)
# “Also recorded” adds a separate entry of the source.
# Columns and labels:
# [1] = system: CD8+ T lymphocytes; experiment: Proliferation of anti-CD3 plus IL-2 activated CD8+ T lymphocytes; format: cell-based, BALB/c mouse
# From the text: Growth curves of lymph node T cells depleted of antigen-presenting cells (FIG. 17A) with and without 10^-6 M retinol at 2×10^5 and 5×10^4 cells/well. (FIG. 17B) Dose-responses elicited by different retinoids in cultures of lymph node T cells depleted of antigen-presenting cells. Also shown are the growth curves of CD4^+ (FIG. 17C) and CD8^+ T lymphocytes (FIG. 17D) in the presence of either retinol, 14HRR, human serum or in their absence.
# T lymphocytes, purified as described, 5×10^4 well, were activated with immobilized anti-CD3 antibody in ITLB medium. The indicated amounts of retinoids or human serum were added at initiation of cultures. […] 14HRR was added every 12 hours. DNA synthesis was measured by a 4 hour pulse with tritiated thymidine. SDs were ≤17%.
# The cell suspension in a volume of 2 ml was applied to a nylon wool column (40) (0.6 g of washed nylon fibers in the barrel of a 10 ml syringe) and incubated at 37° C. for 40 min. The non-adherent cells were recovered by washing with warm serum-free medium at a flow rate of 1 ml/min. […] The success of the enrichment procedures was monitored cytofluorimetrically using FITC-conjugated anti-CD8 and PE-conjugated anti-CD4. […]
# [2] = system: T cells; experiment: T cell activation/proliferation; format: cell-based, murine; conditions: for substitution for retinol in T cell activation: with mitogen/anti-CD3; for T cell activation on its own: without mitogen
# Description: They were seeded into 96-well flat-bottom plates at varying cellular densities in a final volume of 100 μl. In control experiments, cells were cultured in medium containing 10% FCS or 3% human serum and 5×10^-5 M 2 ME. […] Cultures were carried out in duplicate. Plates were incubated at 37° C. in a humidified 5% CO2 atmosphere. Cellular proliferation was determined by [^3 H] thymidine uptake (0.5 uCi/well; New England Nuclear, Boston, Mass.) after the incubation times indicated for each experiment with a 4 hour labeling pulse. Cells were harvested onto glass filter and [^3 H]TdR incorporation was determined by liquid scintillation counting. The data presented are the means of duplicate or six replicate cultures. The restriction to duplicate measurements was necessary to conserve scarce 14HRR. […] Each experiment was repeated at least twice.
# [3] = system: SLA; experiment: Retinol metabolism; format: in vitro ADME, mouse
# Description: (§1) FBS. The FBS was preincubated at room temperature with 14.4 uCi [^3 H
# (§2) retinol (NEN) for 4 h. The cell pellet was washed twice with PBS. The
# (§3) retinoid were extracted according to MClean et al. 90 and separated on an
# (§4) analytical c18 reverse phase column according to FIG. 7. The DPM wer
# (§5) determined using an online scintillation counter.
# [4] = system: EL-4; experiment: Retinol metabolism; format: in vitro ADME, mouse
# Description: as §1, §2, §3, §4, §5
# [5] = system: P388D.1; experiment: Retinol metabolism; format: in vitro ADME, mouse
# Description: as §1, §2, §3, §4, §5
Compound,response to activating signal [1],activity relative to all-trans retinol in T cells [2],substitution for retinol in T cell activation [2],substitution for retinol in T cell activation ([2]; listed as 14-hydroxy-retro-retinol),T cell activation on its own [2],Total cts. [3],Ester (% of taken up retinol) ([3]; overnight) [%],P3 (% of taken up retinol) ([3]; overnight) [%],Retinol (% of taken up retinol) ([3]; overnight) [%],Total cts. ([4]; EL-4),"Ester (% of taken up retinol) ([4]; EL-4, overnight) [%]","P3 (% of taken up retinol) ([4]; EL-4, overnight) [%]","Retinol (% of taken up retinol) ([4]; EL-4, overnight) [%]",Total cts. ([5]; P388D.1),"Ester (% of taken up retinol) ([5]; P388D.1, overnight) [%]","P3 (% of taken up retinol) ([5]; P388D.1, overnight) [%]","Retinol (% of taken up retinol) ([5]; P388D.1, overnight) [%]","activation in FCS-containing medium in absence of APC ([2]; additional retinol supplied, FCS medium)",optimally effective dose ([2]; given once in a 3-day culture) [µM],optimally effective dose ([2]; provided at 12 hour intervals) [µM]
"CC(C=CC=C(C)C(O)CO)=CC=C1C(C)=CCCC1(C)C (stereo not shown) [14HRR, 14-hydroxy-4,14-retro-retinol]",responded to the activating signal,as active,capable of supporting T cell activation and proliferation,effectively supports T cell activation in conjunction with a mitogen in lieu of retinol; also recorded: capable of supporting activation and sustaining proliferation of T cells,unable to activate T cells on their own,–,–,–,–,–,–,–,–,–,–,–,–,–,–,–
"CC1=C(/C=C/C(C)=C/C=C/C(C)=C/CO)C(C)(C)CCC1 [retinol, all-trans retinol]",responded to the activating signal,–,–,–,unable to activate T cells on their own,6.1 × 10^5 cts.,9,3,85,2.8 × 10^5 cts.,44,5,40,1.4 × 10^5 cts.,26,0.5,71,no activation,2,0.2
